Patent US9421281B2, “Target vector with activable imaging function” (Centre National de la Recherche Scientifique, priority 2005, dated 2016)

How the values were obtained:
[1] = Chemical cleavage of the disulfide bridge with 2-mercaptoethanol (absorption and fluorescence); format: physicochemical; details: for fluorescence after chemical cleavage of the S—S disulfide bridge: imaging function grafted onto RAFT-(cRGD)4, 10 mM PBS, pH 7.2, [2-MCE]=85 mM; for fluorescence of the Cy5 fluorophore(s) before cleavage of the disulfide bridge: imaging function grafted onto RAFT-(cRGD)4, 0.5 or 0.10 μM in 10 mM PBS, pH 7.2
Excerpt: FIG. 5: Absorption and fluorescence of the imaging function Cy5-Cys-S—S-Cys-Cy5 before and after chemical cleavage of the disulfide bridge with 2-mercaptoethanol (2-MCE). A. Absorption spectrum and evolution thereof over time during the addition of 2-MCE. […] C. Evolution over time of the fluorescence of the imaging function during the addition of 2-MCE. […] FIG. 6: Absorption and fluorescence of the imaging function Cy5-Cys-S—S-Cys-QSY21 before and after chemical cleavage of the disulfide bridge with 2-mercaptoethanol (2-MCE). A. Absorption spectra and evolution thereof over time during the addition of 2-MCE. […] C. Evolution over time of the fluorescence of the imaging function during the addition of 2-MCE. […] FIG. 10: Absorption and fluorescence of the imaging function Cy5-Cys-S—S-Cys-Cy5 grafted onto RAFT-(cRGD)4, before and after chemical cleavage of the disulfide bridge with 2-mercaptoethanol (2-MCE). A. Absorption spectrum and evolution thereof over time during the addition of 2-MCE. […] C. Evolution over time of the fluorescence of the imaging function during the addition of 2-MCE. […] FIG. 11: Absorption and fluorescence of the imaging function Cy5-Cys-S—S-Cys-QSY21 grafted onto RAFT-(cRGD)4, before and after chemical cleavage of the disulfide bridge with 2-mercaptoethanol (2-MCE). A. Absorption spectrum and evolution thereof over time during the addition of 2-MCE. […] C. Evolution over time of the fluorescence of the imaging function during the addition of 2-MCE.

[2] = test system: subcutaneous tumor of IGROV-1 type; test: Optical imaging of tumors in the nude mouse (fluorescence reflectance imaging); format: in vivo, nude mice; details: 10 nmol/mouse i.v.; for evolution of the signal in the tumor over time / signal in the tumor compared with the control probe: IGROV-1 tumor, FIG. 12A; for contrast, ratio of signal between the tumor and the skin: compared with RAFT-(cRGD)4-Cy5-Cys-S—S-cysteine, FIG. 12B
Procedure: FIG. 12: Results of the in vivo injection of the molecular probes RAFT-(cRGD)4-Cy5-Cys-S—S-Cys=Cy5, RAFT-(cRGD)4-Cy5-Cys-S—S-Cys-QSY21, and RAFT-(cRGD)4-Cy5-Cys-S—S-Cys (control) in nude mice, imaged using a fluorescence imaging device (excitation 633 nm; detection λ>670 nm). Intravenous injection of 10 nmol of probe/mouse, in 100 μL of PBS (pH 7.1, 9.5 mM), into the tail of anesthetized mice carrying, on the back, a subcutaneous tumor of IGROV-1 type ([…] injected subcutaneously 2 weeks before imaging). A. Fluorescence intensity measured in the tumor over time. B. Ratio of the fluorescence intensities measured in the tumor and in the skin over time. C. Images obtained 10 minutes and 5 h after injection for the various molecular probes.
The mice used are female nude mice 6 to 8 weeks old, maintained under pathogen-free conditions. The IGROV-1 cells (human ovarian cancer model) are cultured in an RPMI 1640 culture medium containing 1% of glutamine, 10% of FCS, 50 U/ml of penicillin and 50 μg/ml of streptomycin. The cells are maintained at 37° C. under a humid atmosphere with 5% of CO2. 10×10^6 cells are injected subcutaneously into the back of the mice 2 weeks before injection of the molecular vectors RAFT-(cRGD)4-Cy5-Cys-S—S-Cys-Cy5 and RAFT-(cRGD)4-Cy5-Cys-S—S-Cys-QSY21. The latter are injected into the tail intravenously, in 100 μl of PBS (pH 7.1, 9.5 mM), at doses of 10 nmol/mouse.
The anesthetized mice are imaged with a fluorescence reflectance imaging (FRI) device, comprising as excitation source a crown of LEDs equipped with interference filters, emitting at 633 nm (illumination power 50 μW·cm^−2). The images are collected after filtration with an RG665 colored filter of optical density>5 at the excitation wavelength by means of a CCD camera (Orca BTL, Hamamatsu), with an exposure time of 100 ms. The signals are quantified using image processing software.

Hekβ3 cells = test: Penetration into the cells, laser scanning confocal microscopy; format: cell-based; details: 1 to 2 hours of incubation
Procedure: FIG. 13: Penetration of the labels into the cells, imaged by laser scanning confocal microscopy. Hekβ3 cells after 1 to 2 hours incubation in the presence of a negative control RAFT(4cRAD)-Cy5 (column 1), or in the presence of RAFT(4cRGD)-Cy5 (column 2), RAFT(4cRGD)-Cy5-Cys-S—S-Cys-Cy5 (column 3), or RAFT(4cRGD)-Cy5-Cys-S—S-Cys-quencher (column 4). The penetration into the cells of the probes RAFT-(cRGD)4-Cy5, RAFT-(cRGD)4-Cy5-Cys-S—S-Cys-Cy5 and RAFT-(cRGD)4-Cy5-Cys-S—S-Cys-QSY21 was observed on Hekβ3 cells, after 1 to 2 hours of incubation.

Substance: cysteine(Cy5)-S—S-cysteine(Cy5)RAFTc[RGDfK-]4 [RAFT-(cRGD)4-Cy5-Cys-S—S-Cys-Cy5]
- fluorescence after chemical cleavage of the S—S disulfide bridge [1]: completely released
- fluorescence of the Cy5 fluorophore(s) before cleavage of the disulfide bridge [1]: initially self-quenched
- evolution of the signal in the tumor over time [2]: gradual appearance of the signal in the tumor
- signal in the tumor compared with the control probe [2]: more signal in the tumor
- contrast, ratio of signal between the tumor and the skin [2]: increases
- penetration into the cells (location of fluorescence) (Hekβ3 cells): does not enter well

Substance: cysteine(Cy5)-S—S-cysteine(QSY21)RAFTc[RGDfK-]4 [RAFT-(cRGD)4-Cy5-Cys-S—S-Cys-QSY21]
- fluorescence after chemical cleavage of the S—S disulfide bridge [1]: completely released
- fluorescence of the Cy5 fluorophore(s) before cleavage of the disulfide bridge [1]: initially self-quenched
- evolution of the signal in the tumor over time [2]: gradual appearance of the signal in the tumor
- signal in the tumor compared with the control probe [2]: more signal in the tumor
- contrast, ratio of signal between the tumor and the skin [2]: increases
- penetration into the cells (location of fluorescence) (Hekβ3 cells): clear fluorescence inside the cells
- penetration into the cells (location of fluorescence) (Hekβ3 cells; listed as RAFT-Cy5-Cys-S—S-Cys-Q): penetrates into the cells better

Substance: cysteine(Cy5)-S—S-cysteineRAFTc[RGDfK-]4 [RAFT-(cRGD)4-Cy5-Cys-S—S-cysteine, reference compound]
- evolution of the signal in the tumor over time [2]: decreases very rapidly over time
